# Assay results reported in patent US11865126B2, “Method for treating anxiety disorders, headache disorders, and eating disorders with psilocybin” (priority 2019, dated 2024).
# Columns and labels:
# [1] = system: subjects with chronic cluster headaches (CCH); assay: Chronic cluster headaches study (headache logs); type: in vivo, human; settings: 0.14 mg/kg perorally x3; same subject
# Text: The study took place over a 10 week period which consisted of a baseline observation period, 3 psilocybin sessions, and a follow-up period in subjects with CCH (FIG. 27). Throughout the course of the study, subjects completed questionnaires and headache logs in order to access headache frequency, duration, and severity.
# Before the beginning of the study, subjects taking prophylactic medication underwent a 2 week wash-out period to eliminate medication. Subjects then began a baseline observation period lasting 4 weeks during which the subjects received a functional MRI (magnetic resonance imaging) scan. After the observation period, subjects were perorally administered their first dose of 0.14 mg/kg psilocybin. Blood samples were collected during the initial dosing session to establish psilocin plasma concentrations. Over the next two weeks, subjects were administered two additional doses of psilocybin with each dose administered one week apart. The last psilocybin dose was followed by 4 weeks of observation that included a functional MRI scan one week after the last psilocybin dose. Subjects were also contacted 6 and 12 months after the last psilocybin dose to gain information about the duration of potential remission periods. All regular acute treatments were permitted during the study period and recorded in the headache diary. […]
# [2] = system: healthy subjects; assay: Social Value Orientation (SVO); type: in vivo, human
# Text: In some embodiments, the Social Value Orientation (SVO) test is utilized to evaluate the safety and/or efficacy of psilocybin. The SVO Slider Measure has 6 primary items with 9 secondary (and optional) items. All of the items have the same general form. Each item is a resource allocation choice over a well-defined continuum of joint payoffs.
# The following list of outcome measures are non-exhaustive. • a. The short-term change from Baseline (Day −1 [Visit 2]) to Day 7 (Visit 5) in cognitive measures of attention, spatial and working memory and executive function was measured by a composite score of the CANTAB Panel (Spatial Working Memory [SWM], Rapid Visual Information Processing [RVP], Paired Associates Learning [PAL]). • b. The short-term change from Baseline (Day −1 [Visit 2]) to Day 7 (Visit 5) in Social Cognition Panel scales (Pictorial Empathy Test [PET], Reading the Mind in the Eyes Test [RMET], Toronto Empathy Questionnaire [TEQ], Social Value Orientation [SVO], Scale of Social Responsibility [SSR]). • c. The change from Baseline (Day −1 [Visit 2]) to Day 28 (Visit 6) in cognitive measures of attention, spatial and working memory and executive function as measured by a composite score of the CANTAB Panel (SWM, RVP, PAL). • d. The long-term change from Baseline (Day −1 [Visit 2]) to Day 84 (Visit 7) in Social Cognition Panel scales (PET, RMET, TEQ, SVO, SSR). • e. Dose-related differences between cognitive effects of psilocybin at Baseline (Day −1 [Visit 2]), Day 7 (Visit 5) and Day 28 (Visit 6), as measured by a composite score of the CANTAB Panel (SWM, RVP, PAL). • f. Dose-related differences between psychological effects of psilocybin at Baseline (Day −1 [Visit 2]), Day 7 (Visit 5) and Day 84 (Visit 7), as measured by Social Cognition Panel scales (PET, RMET, TEQ, SVO, SSR). • g. Differences in cognitive effects of psilocybin between psilocybin-naïve and experienced subjects at Baseline (Day −1 [Visit 2]), Day 7 (Visit 5) and Day 28 (Visit 6), as measured by a composite score of the CANTAB Panel (SWM, RVP, PAL). • h. Differences in Positive and Negative Affect Schedule (PANAS) after study drug administration on Day 0 (Visit 3). • i. Differences between psilocybin and placebo in the Emotion Recognition Test (ERT), Intra-Extra Dimensional Set Shift (IED), One Touch Stockings (OTS), Verbal Fluency and Digit Span Forward at Day 7 (Visit 5). • j. A composite score of the CANTAB Panel, including the following tests: • i. Spatial Working Memory (SWM) (performed at Visit 2, Visit 5, and Visit 6). • ii. Rapid Visual Information Processing (RVP) (performed at Visit 2, Visit 5, and Visit 6). • iii. Paired Associates Learning (PAL) (performed at Visit 2, Visit 5, and Visit 6). • k. Cognitive Flexibility Panel • i. Emotion Recognition Task (ERT) (performed at Visit 5). • ii. Intra-Extra Dimensional Set Shift (IED) (performed at Visit 5). • iii. One Touch Stockings (OTS) (performed at Visit 5). • iv. Verbal Fluency (performed at Visit 5). • v. Digit Span Forward (performed at Visit 5). • l. Five Dimension Altered States of Consciousness questionnaire (5D-ASC) (performed at Visit 3). • m. PANAS (performed at Visit 2 and Visit 3). • n. NEO-Five Factor Inventory (NEO-FFI) (performed at Visit 2, Visit 5, and Visit 7). • o. Symptom Checklist-90 item (SCL-90) (performed at Visit 2, Visit 5, and Visit 7). • p. Life Changes Inventory (LCI): The LCI measures changes in attitudes and values after near-death experiences often used to evaluate personal transformation following spiritually oriented experiences and practices. (performed at Visit 5 and Visit 7). • q. Social Cognition Panel scales • i. Pictorial Empathy Test (PET) (performed at Visit 2, Visit 5, and Visit 7). • ii. Reading the Mind in the Eyes Test (RMET) (performed at Visit 2, Visit 5, and Visit 7). • iii. Social Value Orientation (SVO) (performed at Visit 2, Visit 5, and Visit 7). • iv. Toronto Empathy Questionnaire (TEQ) (performed at Visit 2, Visit 5, and Visit 7). • v. […]
structure (smiles),measurement,setting,value
CN(C)CCc1c[nH]c2cccc(OP(=O)(O)O)c12 [psilocybin],Cluster headache with pain greater than normal,[1],at least one very painful cluster headache
same,"SVO angle change from baseline, LS mean difference Psilocybin 10 mg - Placebo","[2]; Day 7, MMRM",3.4
same,"SVO angle change from baseline, LS mean difference Psilocybin 25 mg - Placebo","[2]; Day 7, MMRM",2.1
same,"SVO angle change from baseline, LS mean difference Psilocybin 25 mg-10 mg","[2]; Day 7, MMRM",−1.3
same,"SVO type change from baseline, LS mean difference Psilocybin 10 mg - Placebo","[2]; Day 7, MMRM",0.1
same,"SVO type change from baseline, LS mean difference Psilocybin 25 mg - Placebo","[2]; Day 7, MMRM",0.1
same,"SVO type change from baseline, LS mean difference Psilocybin 25 mg-10 mg","[2]; Day 7, MMRM",−0.0
same,"SVO angle change from baseline, LS mean difference Psilocybin 10 mg - Placebo","[2]; Day 84, MMRM",3.4
same,"SVO angle change from baseline, LS mean difference Psilocybin 25 mg - Placebo","[2]; Day 84, MMRM",2.4
same,"SVO angle change from baseline, LS mean difference Psilocybin 25 mg-10 mg","[2]; Day 84, MMRM",−1.0
same,"SVO type change from baseline, LS mean difference Psilocybin 10 mg - Placebo","[2]; Day 84, MMRM",0.1
same,"SVO type change from baseline, LS mean difference Psilocybin 25 mg - Placebo","[2]; Day 84, MMRM",0.1
same,"SVO type change from baseline, LS mean difference Psilocybin 25 mg-10 mg","[2]; Day 84, MMRM",−0.0
